The values below come from PubChem BioAssay AID651717 (Broad Institute, 2012).

For the assay, the system named is mESC Bmi1-luciferase reporter, firefly/renilla ratio, 24 h. Description: Bmi1-luciferase reporter activators in mESC, dose response, esBAF inhibitor project, mouse embryonic stem cells, cherry-pick (AID 651717).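 Also: luciferase knocked into Bmi1 locus with EF-1a renilla as cell number control; rising ratio signals esBAF inhibition which derepresses Bmi1.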
As for `Cc1ccc(N(Cc2ccccc2)C(=O)c2cccc(S(=O)(=O)N3CC(C)OC(C)C3)c2)cc1` (centres undefined), the AC40 is 29.6 µM. For `c1ccc(-c2ccc3[nH]ccc3c2)cc1`, the AC40 was 3.07 µM. To `CCCCN1C(=S)NC[C@@H]1Cc1cccc2ccccc12` belongs 17.3 µM; to `COc1ccccc1C(=O)NCCC(=O)NC1CCC(C)CC1` (centres undefined), 4.6 µM. The result for `O=c1ccc2ccc(OCc3ccccc3)cc2o1` reads 3.55 µM; that for `CCn1cnc2cc(NCc3ccccc3Cl)ccc21`, 3.92 µM. For `c1ccc(C2Oc3ccccc3C3CC(c4cccs4)=NN32)cc1` (centres undefined), the AC40 was 8.04 µM. The result for `Cc1ccc2c3c([nH]c2c1C)-c1nonc1CC3` reads 4.53 µM. Consider `O=C1CC(/C=C/c2ccncc2)=Nc2ccccc2N1`, for which the AC40 is 6.57 µM.

In the case of `COc1cc(/C=C/c2ccccc2)cc(OC)c1`, the AC40 was 2.93 µM. With `OCc1c(OCc2cccc(F)c2)ccc2ccccc12`, the AC40 is 7.24 µM. To `Cc1ccc(O)c(N=Cc2ccc(C)s2)c1` belongs 25.8 µM; to `CN(C)S(=O)(=O)c1cccc(C(=O)Nc2ccc(Cl)cn2)c1`, 5.04 µM. As for `COc1cc(CNc2ccc(S(N)(=O)=O)cc2)ccc1OCc1ccccc1F`, the AC40 is 1.87 µM. In the case of `O=C(NC1CCCCCCC1)c1cccc(Cl)c1`, the AC40 was 10.7 µM. To `Cc1ccc(Nc2nc(-c3cccnc3)cs2)cc1Cl` belongs 0.961 µM. For `O=C(CCc1nnc(CCc2c[nH]c3ccccc23)o1)NC1CCC1`, the AC40 was 4.41 µM. Consider `COc1ccc(NC(=O)CCC(=O)Nc2ccc3nc(N4CCOCC4)cc(C)c3c2)c(OC)c1`, for which the AC40 was 6.04 µM. For `NC(=O)C1CCN(c2nc(-c3cccc(N)c3)cs2)CC1`, the AC40 was 1.35 µM. The result for `COc1ccc(-c2cc(C(=O)N3CCN(c4ccccc4O)CC3)c3ccccc3n2)cc1` reads 3.16 µM; that for `CN(C)c1ccc(-c2csc(C(O)c3ccccc3)n2)cc1` (centres undefined), 0.311 µM; that for `CN(CC(=O)Nc1ccc(Cl)c(C(F)(F)F)c1)C(=O)CCCNC(=O)c1ccc(Cl)cc1`, 16.8 µM. `ClCCn1cnc2c(SCc3ccccc3)ncnc21`: the AC40 was 2.74 µM. The result for `O=C1/C(=C/c2cccc3ccccc23)CCCc2ccccc21` reads 5.34 µM.

`O=C(COc1ccc(/C=N/NC(=O)c2cc3ccccc3o2)cc1Br)Nc1ccccc1`: the AC40 was 4.24 µM. To `COC(=O)c1sccc1NC(=O)c1ccc(OC)cc1` belongs 6.81 µM; to `C=CCn1c(-c2ccc(N)cc2)nc2ccccc21`, 0.806 µM; to `CCn1c(COc2ccccc2C)nc2ccccc21`, 3.51 µM. In the case of `CC1CCN(C(=O)CCc2nnc(-c3ccccc3)o2)CC1`, the AC40 is 4.2 µM. The result for `Cc1ccc(NCC(=O)N/N=C/c2cc3ccccc3nc2Cl)cc1` reads 30.6 µM; that for `CC(=O)c1cccc(OCc2cc(C(=O)NCCC3=CCCCC3)no2)c1`, 1.23 µM.

With `c1ccc(-c2csc(Nc3cccnc3)n2)nc1`, the AC40 is 4.74 µM. For the compound `COc1cc(Cl)ccc1OCc1cc(C(=O)N2CCN(C)C(=O)[C@@H]2C)no1`, the AC40 is 1.64 µM. For `COc1ccccc1CNC(=O)C[C@H]1CC[C@H]2[C@@H](COC[C@@H](O)CN2C(=O)Nc2ccc(Cl)cc2)O1`, the AC40 was 1.05 µM. As to `COc1ccc(C2=NN(C(=O)c3ccccc3C(=O)O)C(c3ccccc3O)C2)cc1` (centres undefined), the AC40 was 6.57 µM.

Regarding `COC(=O)c1c(-c2ccc(SC)cc2)sc2ccc(OC)cc12`, the AC40 is 0.613 µM. As for `O=C(c1cc2c(s1)-c1ccccc1OC2)N1CCCC1`, the AC40 is 1.71 µM. As for `O=c1cc(-c2ccsc2)oc2ccc(-c3ccc4cc[nH]c4c3)cc12`, the AC40 is 9.01 µM.

In the case of `Cc1cc(C)c2c(CN(C)Cc3ccccc3)cc(=O)oc2c1`, the AC40 was 4.9 µM. The result for `COc1ccc(C)c2sc(=NC(=O)c3cccc(N4C(=O)CCC4=O)c3)n(C)c12` reads 1.81 µM; that for `Nc1c(Cl)cc(N=Nc2ccccc2)cc1Cl`, 3.27 µM.

For the compound `OC(c1ccc(F)c(F)c1)c1nc(-c2ccc3ccccc3c2)cs1` (centres undefined), the AC40 is 20.3 µM.

`Nc1nc(SCc2ccccc2)cc(SCc2ccccc2)n1`: the AC40 is 4.44 µM. The result for `Cn1c(/C=C/c2ccc(Br)cc2)nc2ccccc2c1=O` reads 4.88 µM. The result for `COc1cccc(C(=O)Nc2ccc(Cl)c(C(F)(F)F)c2)c1` reads 5.59 µM; that for `O=C(c1ccc(Cl)cc1)c1cnc(Nc2ccccc2)s1`, 1.46 µM. To `O=C(Nc1nc2ccc(Cl)cc2s1)c1cccc(N2C(=O)CCC2=O)c1` belongs 3.25 µM; to `Fc1cccc(Cl)c1/C=N/Nc1ccccn1`, 8.55 µM; to `COc1ccc(-c2noc(CCCC(=O)N3CCN(c4cc(C)ccc4C)CC3)n2)cc1`, 3.53 µM.

Regarding `Cc1ccc(C)c(N2CCN(C(=O)CCc3nc(-c4ccccc4C(F)(F)F)no3)CC2)c1`, the AC40 is 4.63 µM.

For `CSc1ccccc1NC(=O)c1cc(C(C)C)on1`, the AC40 was 3.11 µM. `Cc1[nH]c2ccccc2c(=O)c1CN(C)Cc1ccccc1`: the AC40 is 10.4 µM. To `COc1ccc(C(O)c2nc(-c3ccc4ccccc4c3)cs2)cc1` (centres undefined) belongs 13 µM; to `Cc1cccc(-n2nnc(C(=O)Nc3ccc(F)cc3)c2N)c1`, 0.798 µM.

Take `CC(=O)NCCNc1nc2cc(-c3ccc(C)cc3)sc2c(=O)n1C`: the AC40 was 14.3 µM. The result for `COC(=O)c1c(-c2ccc(SC)cc2)sc2ccccc12` reads 14.3 µM. The result for `COc1cc(Cl)c(C)cc1NC(=O)c1cccc(OC)c1OC` reads 6.31 µM.

For the compound `CCCCN(Cc1ccccc1)c1ncnc2nc[nH]c12`, the AC40 is 10.1 µM. For `O=C(NCCc1ccccc1)c1nccc2ccccc12`, the AC40 was 6.84 µM. With `COc1cccc(OCc2cc(C(=O)N(C)C3CCCCC3)no2)c1`, the AC40 is 4.53 µM.

In the case of `CC(=O)c1ccc(OCc2cc(C(=O)N(C)Cc3ccccn3)no2)cc1`, the AC40 was 6.33 µM. To `CO[C@@H]1CN(C)C(=O)c2cc(NC(=O)Nc3ccc4c(c3)OCO4)ccc2OC[C@H](C)NC[C@@H]1C` belongs 6.97 µM; to `CC(NC(=O)c1cc(COc2ccc(-n3cncn3)cc2)on1)c1ccc(F)cc1` (centres undefined), 5.4 µM; to `CN(C(=O)c1ccc2c(Cl)c3c(nc2c1)CCC3)c1ccccc1`, 6.63 µM. In the case of `COc1ccccc1CCC(=O)Nc1nc2ccccc2[nH]1`, the AC40 was 3 µM. The result for `Cc1cc(C)c2nc(N3CCCC(C(=O)NC4CCCC4)C3)sc2c1` (centres undefined) reads 9.66 µM; that for `COc1cccc(C(=O)c2cc3cc(Cl)ccc3[nH]2)c1`, 3.55 µM. As to `CCC(=O)Nc1cccc(-c2nnc(-c3ccccc3)o2)c1`, the AC40 is 2.83 µM.

Regarding `CC(=O)Oc1ccc(-c2csc(Nc3ccc(Cl)cn3)n2)cc1`, the AC40 was 2.19 µM.

On to `Nc1cc(OCc2ccccc2)ccc1OCc1ccccc1`, for which the AC40 was 5.17 µM. To `COc1ccc(-c2cc3ccccc3s2)cc1[C@H]1[C@H]2C=CC[C@@H](C)[C@@H]2C(=O)N1Cc1ccccc1` belongs 1.53 µM; to `CO[C@@H]1CN(C)C(=O)c2cc(NC(=O)Nc3ccc4c(c3)OCO4)ccc2OC[C@@H](C)NC[C@@H]1C`, 3.02 µM; to `COc1ccc(-c2cc([C@H]3[C@H]4C=CC[C@@H](C)[C@@H]4C(=O)N3Cc3ccccc3)ccc2F)cc1OC`, 17.8 µM. Consider `COc1ccc(-n2nc(C(=O)NCC(=O)N3CCN(c4ccccc4F)CC3)c3ccccc3c2=O)cc1`, for which the AC40 was 1.22 µM.
